Columns and labels:
[1] = test system: human PMNs stimulated by IL-8; test: Chemotaxis of human PMNs stimulated by IL-8 (48-well microchamber); assay type: cell-based; details: for activity on chemotaxis induced by IL-8, in words: Tables 1 and 2; for % inhibition of leucocyte chemotaxis: Table 3, diastereoisomers of ibuprophenoyl-alanine
Procedure: For in vitro evaluation of the compounds of the invention, polymorphonucleated leucocytes were used (hereinafter referred to as PMNs) isolated from heparinized human blood, taken from consenting healthy adults, by means of sedimentation on dextrane; the mononucleated cells were removed by means of Ficoll/Hypaque, whilst the red blood cells were eliminated by treatment with hypotonic solutions. The cell vitality of the PMNs was calculated by exclusion with Tripan blue, whilst the percentage of PMNs on the cytocentrifugate was estimated after staining with Diff Quinck., in accordance with the procedure described by W. J. Ming et al., J. Immunol., 138, 1469, 1987. In each of the experiments, which will be described in details below, the pre-incubations were carried out at a temperature of 37° C., observing incubation times of 10 minutes with the compounds under examination.
In the chemotaxis experiments and in those aimed at measuring the cytosol levels of the Ca^++ ion, recombinant human interleukin-8 (rhIL-8, Pepro Tech) was used; the lyophilized protein was dissolved in HBSS (Hank's balanced salts solution) at the concentration of 100 mcg/mL, and then diluted down to a concentration of 10 ng/mL in the chemotaxis experiments, to that a concentration of 25-50 ng/mL in the evaluation of the intracellular modifications of Ca^2+ (i.e. [Ca^2+]i) and to that a concentration of 400 ng/ml in the evaluation of tyrosine kinase activation.
During the chemotaxis assay (according to W. Falket et al., J. Immunol. Methods, 33, 239, 1980) PVP-free filters were used having a porosity of 5 mcm and microchambers made of plexiglas suitable for carrying out the replication.
The compounds being studied were added at one and the same concentration in the top-level wells that contained the suspension of PMNs, and in the wells of the bottom level that contained the vehicle to which IL-8 (or, if so desired, another stimulating agent) was added or otherwise.

TNF-α [2] = test: TNF-α production in murine macrophages stimulated by LPS or H2O2; assay type: cell-based; details: stimulated in murine macrophages by H2O2 and by liposaccharides
PGE2 = PGE2 synthesis in murine macrophages stimulated with lipopolysaccharides; assay type: cell-based; details: after stimulation with LPSs at 1 μg/mL
TNF-α [3] = details: in the presence of LPSs and of S-ketoprofen 10^−5 M; LPSs alone 10±5 ng/mL; cited from earlier work
[4] = Table 1, compound conc. 10^−8 M, IL-8 10 ng/mL
[5] = Table 2, compounds 10^−8 M, IL-8 10 ng/mL

SMILES	activity on chemotaxis induced by IL-8, in words [1]	% inhibition of chemotaxis of human PMNs stimulated by IL-8 (10 ng/mL) [1, 5] [%]	other results
CC(C)Cc1ccc([C@H](C)C(N)=O)cc1 [(S)-2-(4-isobutyl-phenyl)-propionamide, reference compound]	altogether absent		% inhibition of chemotaxis of human PMNs stimulated by IL-8 (10 ng/mL) [1, 4]: −2 ± 8%
CC(C)Cc1ccc([C@@H](C)C(N)=O)cc1 [Compound 1, (R)-2-(4-isobutyl-phenyl)-propionamide, reference compound]	active	57 ± 12	% inhibition of chemotaxis of human PMNs stimulated by IL-8 (10 ng/mL) [1, 4]: 57 ± 12%
CNC(=O)[C@H](C)c1ccc(CC(C)C)cc1 [Compound 2, R(−)-2-(4′-isobutyl)phenyl-N-methyl propionamide]		25 ± 9	% inhibition of leucocyte chemotaxis stimulated by IL-8 (10 ng/mL) ([1]; concentration of 10^−8 M): 25±9%; production of TNF-α (TNF-α [2]): down-regulate the production of TNF-α; synthesis of PGE2 in the macrophages (PGE2): do not inhibit
CC(C)Cc1ccc([C@@H](C)C(=O)NCCO)cc1 [Compound 3, R(−)-2-(4′-isobutyl)phenyl-N-(2′-hydroxyethyl)propionamide]	decrease in the biological activity	20 ± 11	
CC(C)Cc1ccc([C@@H](C)C(=O)NCC(=O)O)cc1 [Compound 4, R(−)-2-[(4′-isobutyl)phenyl]-N-carboxymethyl propionamide]	inhibitory effect on chemotaxis	45 ± 8	
CC(C)Cc1ccc([C@@H](C)C(=O)N[C@@H](C)C(=O)O)cc1 [Compound 5]	marked “pro-kinetic” paradox effect	65 ± 9	inhibition of chemotaxis induced by IL-8, dose dependence ([1]; IL-8 10 ng/mL, concentration range from 10^−8 to 10^−10 M): inhibits, in a dose-dependent way; % inhibition of leucocyte chemotaxis [1]: 65 ± 9%
CC(C)Cc1ccc([C@@H](C)C(=O)N[C@H](C)C(=O)O)cc1 [Compound 6, (R,R′)-2-[(4′-isobutyl)phenyl]-N-(2″-carboxyethyl)propionamide]	inhibitory effect on chemotaxis	−17 ± 6	% inhibition of leucocyte chemotaxis [1]: −17 ± 6%
CC(C)Cc1ccc([C@@H](C)C(=O)N[C@@H](CO)C(=O)O)cc1 [Compound 7]	decrease in the biological activity	12 ± 4	
CC(C)Cc1ccc([C@@H](C)C(=O)NCCOCCO)cc1 [Compound 8, R(−)-2-[(4′-isobutyl)phenyl]-N-(2″-hydroxyethoxyethyl)propionamide]	restored	40 ± 4	
CC(C)Cc1ccc([C@@H](C)C(=O)Nc2ccccc2)cc1 [Compound 9, R(−)-2-(4′-isobutyl)phenyl-N-phenyl propionamide]	poor activity	9 ± 10	
CC(C)Cc1ccc([C@@H](C)C(=O)Nc2ccccn2)cc1 [Compound 10, R(−)-2-(4′-isobutyl)phenyl-N-(2′-pyridyl)propionamide]	good activity	36 ± 6	
CC(C)Cc1ccc([C@@H](C)C(=O)Nc2cccnc2)cc1 [Compound 11, R(−)-2-[(4′-isobutyl)phenyl]-N-(3″-pyridyl)propionamide]	poor activity	11 ± 10	
CC(C)Cc1ccc([C@@H](C)C(=O)Nc2ccncc2)cc1 [Compound 12]	good activity	61 ± 8	
Cc1ccnc(NC(=O)[C@H](C)c2ccc(CC(C)C)cc2)c1 [R(−)-2-[(4′-isobutyl)phenyl]-N-(4″-methyl-2″-pyridyl)propionamide, reference compound]			% inhibition of chemotaxis of human PMNs stimulated by IL-8 (10 ng/mL) ([1]; Table 4, IL-8 10 ng/mL): −12 ± 2%
Cc1ccnc(NC(=O)[C@H](C)c2cccc(C(=O)c3ccccc3)c2)c1 [R(−)-2-[(5′-benzoyl)phenyl]-N-(4″methyl-2″-pyridyl)propionamide, reference compound]			% inhibition of chemotaxis of human PMNs stimulated by IL-8 (10 ng/mL) ([1]; Table 4, IL-8 10 ng/mL): −15 ± 25%
Cc1ccnc(NC(=O)[C@@H](C)c2ccc(CC(C)C)cc2)c1 [S(+)-2-[(4′-isobutyl)phenyl]-N-(4″-methyl-2″-pyridyl)propionamide, reference compound]			% inhibition of chemotaxis of human PMNs stimulated by IL-8 (10 ng/mL) ([1]; Table 4, IL-8 10 ng/mL): −3 ± 5%
Cc1ccnc(NC(=O)[C@@H](C)c2cccc(C(=O)c3ccccc3)c2)c1 [S(+)-2-[(5′-benzoyl)phenyl]-N-(4″-methyl-2″-pyridyl)propionamide, reference compound]			% inhibition of chemotaxis of human PMNs stimulated by IL-8 (10 ng/mL) ([1]; Table 4, IL-8 10 ng/mL): −1 ± 10%
CC(C)Cc1ccc([C@H](C)C(=O)N[C@H](C)C(=O)O)cc1 [S,D, reference compound]			% inhibition of leucocyte chemotaxis [1]: 4 ± 19%
CC(C)Cc1ccc([C@H](C)C(=O)N[C@@H](C)C(=O)O)cc1 [S,L, reference compound]			% inhibition of leucocyte chemotaxis [1]: 4 ± 13%
C[C@H](C(=O)O)c1cccc(C(=O)c2ccccc2)c1 [S-ketoprofen]			TNF-α in the incubation medium (TNF-α [3]): 39 ± 5 ng/mL

— patent publication US7705050B2, “Amides, useful in the inhibition of IL-8-induced chemotaxis of neutrophils” (priority 2000, dated 2010)
